Assay results: patent US9896412B2, “Reagents and method for conjugating biological molecules” (POLYTHERICS LIMITED, priority 2008, dated 2018)

Experimental: A pH 7.4 D2O solution was made by first freeze-drying a 50 mM sodium phosphate aqueous solution containing 150 mM NaCl and 20 mM EDTA at pH 7.4 and reconstituting to the same volume with deuterium oxide. Acetone was added as a standard to the buffer at 1.0 μl per 3 ml. Samples of the PEG reagents were dissolved at 1 μmol in 0.75 ml of the buffer and analysed after 4 h and after 25.5 h by 400 MHz NMR spectroscopy. The stability of the PEG maleimide samples was determined by comparing the integral at 6.86 ppm after normalising using the integral for the acetone standard at 2.17 ppm.

% Degradation over 21.5 h at pH 7.4: 19%
Substance: α-methoxy-ω-ethyl-maleinimide polyethylene glycol [PEG maleimide sample 2]
